PubChem BioAssay (NCI)
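Five compound concentrations were applied to cells in 96-well plates for 48 hours; endpoints were derived by simple linear interpolation of the resulting dose-response curve. TGI denotes the concentration required for complete inhibition of growth.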

How the values were obtained:
Assay in all cases: NCI tumour cell line growth inhibition, 48 h
SR leukemia = test system: SR leukemia
A549 NSCLC = test system: A549 NSCLC
SK-MEL-28 melanoma = test system: SK-MEL-28 melanoma
TK-10 renal = test system: TK-10 renal
HOP-62 NSCLC = test system: HOP-62 NSCLC
HL-60(TB) leukemia = test system: HL-60(TB) leukemia
DLD-1 colon = test system: DLD-1 colon
EKVX NSCLC = test system: EKVX NSCLC
786-0 renal = test system: 786-0 renal
LOX IMVI melanoma = test system: LOX IMVI melanoma
RPMI-8226 leukemia = test system: RPMI-8226 leukemia
HCC-2998 colon = test system: HCC-2998 colon
OVCAR-8 ovarian = test system: OVCAR-8 ovarian
SK-MEL-5 melanoma = test system: SK-MEL-5 melanoma
OVCAR-5 ovarian = test system: OVCAR-5 ovarian
NCI-H460 lung = test system: NCI-H460 lung
KM12 colon = test system: KM12 colon
RXF-631 renal = test system: RXF-631 renal
HOP-18 NSCLC = test system: HOP-18 NSCLC
UACC-62 melanoma = test system: UACC-62 melanoma
RXF 393 renal = test system: RXF 393 renal
SNB-75 CNS = test system: SNB-75 CNS
OVCAR-3 ovarian = test system: OVCAR-3 ovarian
NCI-H522 lung = test system: NCI-H522 lung
UO-31 renal = test system: UO-31 renal
M14 melanoma = test system: M14 melanoma
SN12C renal = test system: SN12C renal
DMS 114 small cell lung = test system: DMS 114 small cell lung
NCI-H23 lung = test system: NCI-H23 lung
IGROV1 ovarian = test system: IGROV1 ovarian
SF-268 CNS = test system: SF-268 CNS
NCI-H226 lung = test system: NCI-H226 lung
SK-OV-3 ovarian = test system: SK-OV-3 ovarian
XF 498 CNS = test system: XF 498 CNS
UACC-257 melanoma = test system: UACC-257 melanoma
SNB-19 CNS = test system: SNB-19 CNS
HOP-92 NSCLC = test system: HOP-92 NSCLC
ACHN renal = test system: ACHN renal
KM20L2 colon = test system: KM20L2 colon
A498 renal = test system: A498 renal
COLO 205 colon = test system: COLO 205 colon
HCT-116 colon = test system: HCT-116 colon
M19-MEL melanoma = test system: M19-MEL melanoma
HCT-15 colon = test system: HCT-15 colon
HT29 colon = test system: HT29 colon
U251 CNS = test system: U251 CNS
MOLT-4 leukemia = test system: MOLT-4 leukemia
MALME-3M melanoma = test system: MALME-3M melanoma
SNB-78 CNS = test system: SNB-78 CNS
LXFL 529 NSCLC = test system: LXFL 529 NSCLC
SF-295 CNS = test system: SF-295 CNS
CCRF-CEM leukemia = test system: CCRF-CEM leukemia
CAKI-1 renal = test system: CAKI-1 renal
K-562 leukemia = test system: K-562 leukemia
OVCAR-4 ovarian = test system: OVCAR-4 ovarian
SF-539 CNS = test system: SF-539 CNS
SK-MEL-2 melanoma = test system: SK-MEL-2 melanoma
SW-620 colon = test system: SW-620 colon
DMS 273 small cell lung = test system: DMS 273 small cell lung
MCF7 breast = test system: MCF7 breast
SN12K1 renal = test system: SN12K1 renal
P388/ADR leukemia = test system: P388/ADR leukemia
P388 leukemia = test system: P388 leukemia
NCI/ADR-RES ovarian = test system: NCI/ADR-RES ovarian

Cc1cccc2[s+]snc12
TGI (SR leukemia): 77.8 µM | TGI (A549 NSCLC): > 100 µM | TGI (SK-MEL-28 melanoma): > 70.7 µM | TGI (TK-10 renal): > 100 µM | TGI (HOP-62 NSCLC): > 100 µM | TGI (HL-60(TB) leukemia): 41.8 µM | TGI (DLD-1 colon): 74.9 µM | TGI (EKVX NSCLC): > 77.4 µM | TGI (786-0 renal): > 100 µM | TGI (LOX IMVI melanoma): > 100 µM | TGI (RPMI-8226 leukemia): > 81.4 µM | TGI (HCC-2998 colon): > 100 µM | TGI (OVCAR-8 ovarian): > 63.7 µM | TGI (SK-MEL-5 melanoma): > 100 µM | TGI (OVCAR-5 ovarian): > 100 µM | TGI (NCI-H460 lung): > 100 µM | TGI (KM12 colon): > 100 µM | TGI (RXF-631 renal): 43.4 µM | TGI (HOP-18 NSCLC): > 100 µM | TGI (UACC-62 melanoma): > 100 µM | TGI (RXF 393 renal): > 75.1 µM | TGI (SNB-75 CNS): > 100 µM | TGI (OVCAR-3 ovarian): > 89 µM | TGI (NCI-H522 lung): 35.9 µM | TGI (UO-31 renal): > 100 µM | TGI (M14 melanoma): > 100 µM | TGI (SN12C renal): > 100 µM | TGI (DMS 114 small cell lung): > 100 µM | TGI (NCI-H23 lung): > 100 µM | TGI (IGROV1 ovarian): > 100 µM | TGI (SF-268 CNS): > 100 µM | TGI (NCI-H226 lung): > 100 µM | TGI (SK-OV-3 ovarian): > 100 µM | TGI (XF 498 CNS): > 100 µM | TGI (UACC-257 melanoma): > 100 µM | TGI (SNB-19 CNS): > 100 µM | TGI (HOP-92 NSCLC): 44.9 µM | TGI (ACHN renal): > 100 µM | TGI (KM20L2 colon): > 100 µM | TGI (A498 renal): > 100 µM | TGI (COLO 205 colon): 50.8 µM | TGI (HCT-116 colon): > 100 µM | TGI (M19-MEL melanoma): > 100 µM | TGI (HCT-15 colon): > 72.3 µM | TGI (HT29 colon): > 100 µM | TGI (U251 CNS): > 100 µM | TGI (MOLT-4 leukemia): > 65.2 µM | TGI (MALME-3M melanoma): > 67.3 µM | TGI (SNB-78 CNS): > 100 µM | TGI (LXFL 529 NSCLC): > 92.5 µM | TGI (SF-295 CNS): > 100 µM | TGI (CCRF-CEM leukemia): > 65.1 µM | TGI (CAKI-1 renal): > 100 µM | TGI (K-562 leukemia): 59.3 µM | TGI (OVCAR-4 ovarian): > 100 µM | TGI (SF-539 CNS): > 100 µM | TGI (SK-MEL-2 melanoma): > 100 µM | TGI (SW-620 colon): 48.9 µM | TGI (DMS 273 small cell lung): > 100 µM

COC(=O)c1ccc(N=NN(C)COc2ccc([N+](=O)[O-])cc2)cc1
TGI (MCF7 breast): > 100 µM | TGI (A549 NSCLC): > 100 µM | TGI (SK-MEL-28 melanoma): > 100 µM | TGI (HOP-62 NSCLC): > 100 µM | TGI (HL-60(TB) leukemia): 52.5 µM | TGI (DLD-1 colon): > 100 µM | TGI (EKVX NSCLC): > 100 µM | TGI (LOX IMVI melanoma): > 100 µM | TGI (RPMI-8226 leukemia): > 95.3 µM | TGI (HCC-2998 colon): > 100 µM | TGI (OVCAR-8 ovarian): > 100 µM | TGI (SK-MEL-5 melanoma): > 100 µM | TGI (OVCAR-5 ovarian): > 100 µM | TGI (NCI-H460 lung): > 100 µM | TGI (KM12 colon): > 100 µM | TGI (UACC-62 melanoma): > 100 µM | TGI (RXF 393 renal): > 100 µM | TGI (SNB-75 CNS): > 100 µM | TGI (OVCAR-3 ovarian): > 100 µM | TGI (SN12K1 renal): > 100 µM | TGI (P388/ADR leukemia): > 100 µM | TGI (NCI-H522 lung): > 100 µM | TGI (UO-31 renal): > 100 µM | TGI (SN12C renal): > 100 µM | TGI (DMS 114 small cell lung): > 100 µM | TGI (NCI-H23 lung): > 100 µM | TGI (IGROV1 ovarian): > 100 µM | TGI (SF-268 CNS): > 100 µM | TGI (NCI-H226 lung): > 100 µM | TGI (SK-OV-3 ovarian): > 100 µM | TGI (XF 498 CNS): > 100 µM | TGI (UACC-257 melanoma): > 100 µM | TGI (SNB-19 CNS): > 100 µM | TGI (HOP-92 NSCLC): > 100 µM | TGI (P388 leukemia): > 100 µM | TGI (KM20L2 colon): > 100 µM | TGI (A498 renal): > 100 µM | TGI (COLO 205 colon): > 100 µM | TGI (HCT-116 colon): > 100 µM | TGI (M19-MEL melanoma): > 100 µM | TGI (HCT-15 colon): > 100 µM | TGI (HT29 colon): > 100 µM | TGI (U251 CNS): > 100 µM | TGI (MOLT-4 leukemia): > 100 µM | TGI (MALME-3M melanoma): > 100 µM | TGI (SNB-78 CNS): > 100 µM | TGI (SF-295 CNS): > 100 µM | TGI (CCRF-CEM leukemia): > 100 µM | TGI (CAKI-1 renal): > 100 µM | TGI (K-562 leukemia): > 100 µM | TGI (NCI/ADR-RES ovarian): > 100 µM | TGI (OVCAR-4 ovarian): > 100 µM | TGI (SF-539 CNS): > 100 µM | TGI (SK-MEL-2 melanoma): > 100 µM | TGI (SW-620 colon): > 100 µM | TGI (DMS 273 small cell lung): > 100 µM
